Reference: ChEMBL document CHEMBL4229478, “Synthesis, Characterization, and Biological Evaluation of a Porphyrin-Based Photosensitizer and Its Isomer for Effective Photodynamic Therapy against Breast Cancer” (J Med Chem, 2018)
Active and inactive are the calls of the source. The rule behind the calls is not given here.

Tests used:
[1] = Induction of singlet oxygen generation in cell free condition upon 635 nm semiconductor laser light irradiation by singlet oxygen sensor green dye based fluorescence spectrophotometeric analysis; assay type: functional
[2] = system: 4T1; test: Phototoxicity against mouse 4T1 cells assessed as cell viability at 0.5 uM preincubated for 4 hrs followed by 0.5 J/cm2 light irradiation and measured after 24 hrs by MTT assay relative to control; assay type: functional; conditions: 4T1, light or radiation study, read-out: Activity
[3] = system: 4T1; test: Phototoxicity against mouse 4T1 cells assessed as cell viability at 0.5 uM preincubated for 4 hrs followed by 1 J/cm2 light irradiation and measured after 24 hrs by MTT assay relative to control; assay type: functional; conditions: 4T1, light or radiation study, read-out: Activity
[4] = system: 4T1; test: Antitumor activity against mouse 4T1 cells xenografted in BALB/c mouse assessed as inhibition of tumor volume at 4 mg/kg, iv pretreated for 24 hrs followed by 50 J/cm2 light irradiation and measured at day 22 post dose relative to control; assay type: functional; conditions: 4T1, light or radiation study
[5] = system: 4T1; test: Antitumor activity against mouse 4T1 cells xenografted in BALB/c mouse assessed as inhibition of tumor volume at 2 mg/kg, iv pretreated for 24 hrs followed by 50 J/cm2 light irradiation and measured at day 22 post dose relative to control; assay type: functional; conditions: 4T1, light or radiation study
[6] = system: MCF7; test: Phototoxicity against human MCF7 cells assessed as cell viability at 0.5 uM preincubated for 4 hrs followed by 0.5 to 2 J/cm2 light irradiation and measured after 24 hrs by MTT assay; assay type: functional, cell-based
[7] = system: HUVEC; test: Phototoxicity against HUVEC assessed as cell viability at 0.5 uM preincubated for 4 hrs followed by 0.5 to 2 J/cm2 light irradiation and measured after 24 hrs by MTT assay; assay type: cell-based; conditions: human
[8] = Dark toxicity against mouse 4T1 cells assessed as cell viability at 0.5 uM after 24 hrs by MTT assay; assay type: cell-based; conditions: 4t1, 24 h
[9] = Selectivity index, ratio of dark toxicity against mouse 4T1 cells at 0.5 uM to phototoxicity against mouse 4T1 cells at 0.5 uM; assay type: cell-based; conditions: read-out: Selectivity Index
[10] = Drug uptake in human MDA-MB-231 cells at 5 uM after 4 hrs by fluorescence microscopic analysis; assay type: ADME, cell-based; conditions: mda-mb-231, 4 h
[11] = Drug uptake in human MDA-MB-231 cells at 5 uM by flow cytometric analysis; assay type: ADME, cell-based; conditions: mda-mb-231, 5 µM, TDE = time-dependent effect
[12] = Drug uptake in kidney of BALB/c mouse xenografted with mouse 4T1 cells at 10 mg/kg, iv measured at 12 hrs post injection by IVIS spectrum imaging; assay type: ADME, organism-based; conditions: in vivo
[13] = Drug uptake in spleen of BALB/c mouse xenografted with mouse 4T1 cells at 10 mg/kg, iv measured at 12 hrs post injection by IVIS spectrum imaging; assay type: ADME, organism-based; conditions: in vivo
[14] = Drug uptake in heart of BALB/c mouse xenografted with mouse 4T1 cells at 10 mg/kg, iv measured at 12 hrs post injection by IVIS spectrum imaging; assay type: ADME, organism-based; conditions: in vivo
[15] = Drug uptake in endoplasmic reticulum of human MDA-MB-231 cells at 10 uM after 4 hrs by ER tracker green-based confocal laser scanning microscopic analysis; assay type: ADME, subcellular; conditions: mda-mb-231, 4 h
[16] = Drug uptake in tumor of BALB/c mouse xenografted with mouse 4T1 cells at 10 mg/kg, iv measured up to 3 to 24 hrs post injection by fluorescence assay; assay type: ADME, organism-based, Neoplasm; conditions: in vivo
[17] = system: MDA-MB-231; test: Induction of ROS generation in human MDA-MB-231 cells incubated with DCF-DA probe for 30 mins prior to ROS scavenger NAC addition 1 hr before 2 J/cm2 light irradiation and measured after 1 hr post irradiation by flow cytometric analysis; assay type: functional, cell-based
[18] = Tmax in tumor of BALB/c mouse xenografted with mouse 4T1 cells at 10 mg/kg, iv measured after […] by fluorescence assay; assay type: ADME, organism-based, Neoplasm
[19] = system: MDA-MB-231; test: Phototoxicity against human MDA-MB-231 cells assessed as cell viability incubated with ROS scavenger NAC 1 hr before 2 J/cm2 light irradiation by MTT assay relative to control; assay type: functional
[20] = system: MDA-MB-231; test: Induction of apoptosis in human MDA-MB-231 cells assessed as early apoptotic cells after 24 hrs by Annexin-V FITC/propidium iodide staining based flow cytometric analysis (reference value: 1.22%); assay type: cell-based; conditions: mda-mb-231, 24 h
[21] = system: MDA-MB-231; test: Induction of apoptosis in human MDA-MB-231 cells assessed as early apoptotic cells after 24 hrs upon light irradiation by Annexin-V FITC/propidium iodide staining based flow cytometric analysis (reference value: 1.22%); assay type: functional
[22] = system: 4T1; test: Antitumor activity against mouse 4T1 cells xenografted in BALB/c mouse assessed as induction of tissue destruction with large spaces at 4 mg/kg, iv pretreated for 24 hrs followed by 50 J/cm2 light irradiation by hematoxylin and eosin staining based light microscopic analysis; assay type: functional, organism-based
[23] = system: 4T1; test: Induction of apoptosis in mouse 4T1 cells xenografted in BALB/c mouse at 4 mg/kg, iv after 24 hrs by TUNEL assay; assay type: functional, organism-based
[24] = system: Mus musculus; test: Toxicity in BALB/c mouse xenografted with mouse 4T1 cells assessed as effect on body weight at 1 mg/kg, iv pre-tretaed for 24 hrs followed by 50 J/cm2 light irradiation and measured at day 22 post dose; assay type: organism-based; conditions: in vivo
[25] = system: Mus musculus; test: Toxicity in BALB/c mouse xenografted with mouse 4T1 cells assessed as effect on body weight at 2 mg/kg, iv pre-tretaed for 24 hrs followed by 50 J/cm2 light irradiation and measured at day 22 post dose; assay type: organism-based; conditions: in vivo
[26] = system: Mus musculus; test: Toxicity in BALB/c mouse xenografted with mouse 4T1 cells assessed as effect on body weight at 4 mg/kg, iv pre-tretaed for 24 hrs followed by 50 J/cm2 light irradiation and measured at day 22 post dose; assay type: organism-based; conditions: in vivo
[27] = system: Mus musculus; test: Hepatotoxicity in BALB/c mouse xenografted with mouse 4T1 cells assessed as pathological changes in liver at 1 to 4 mg/kg, iv pre-tretaed for 24 hrs followed by 50 J/cm2 light irradiation and measured at day 22 post dose by hematoxylin and eosin staining based light microscopic analysis; assay type: toxicity, organism-based; conditions: in vivo
[28] = system: Mus musculus; test: Hepatotoxicity in BALB/c mouse xenografted with mouse 4T1 cells assessed as pathological changes in liver at 4 mg/kg, iv pre-tretaed for 24 hrs followed by 50 J/cm2 light irradiation and measured at day 22 post dose by hematoxylin and eosin staining based light microscopic analysis; assay type: toxicity, organism-based; conditions: in vivo
[29] = system: Mus musculus; test: Nephrotoxicity in BALB/c mouse xenografted with mouse 4T1 cells assessed as pathological changes in kidney at 4 mg/kg, iv measured at day 22 post dose by hematoxylin and eosin staining based light microscopic analysis; assay type: toxicity, organism-based; conditions: in vivo
[30] = system: Mus musculus; test: Toxicity in BALB/c mouse xenografted with mouse 4T1 cells assessed as pathological changes in spleen at 1 to 4 mg/kg, iv pre-tretaed for 24 hrs followed by 50 J/cm2 light irradiation and measured at day 22 post dose by hematoxylin and eosin staining based light microscopic analysis; assay type: organism-based; conditions: in vivo
[31] = system: Mus musculus; test: Toxicity in BALB/c mouse xenografted with mouse 4T1 cells assessed as pathological changes in lung at 4 mg/kg, iv measured at day 22 post dose by hematoxylin and eosin staining based light microscopic analysis; assay type: organism-based; conditions: in vivo
[32] = system: Mus musculus; test: Toxicity in BALB/c mouse xenografted with mouse 4T1 cells assessed as pathological changes in lung at 1 to 4 mg/kg, iv pre-tretaed for 24 hrs followed by 50 J/cm2 light irradiation and measured at day 22 post dose by hematoxylin and eosin staining based light microscopic analysis; assay type: organism-based; conditions: in vivo

SMILES	Activity [1]	viability at 0.5 µM [2] [%]	viability at 0.5 µM [3] [%]	inhibition in vivo at 4 mg/kg [4] [%]	inhibition in vivo at 2 mg/kg [5] [%]	Activity [6]	Activity [7]	Activity [8]	selectivity ratio at 0.5 µM [9]	Drug uptake [10]	Drug uptake [11]	Drug uptake [12]	Drug uptake [13]	Drug uptake [14]	Drug uptake [15]	Drug uptake [16]	Activity [17]	Tmax [18] [h]	Activity [19] [%]	Activity [20] [%]	other results
C=Cc1c(C)c2cc3nc(cc4[nH]c(cc5nc(cc1[nH]2)C(C)=C5C(C)OCCCCCC)c(C)c4CCC(=O)[O-])C(CCC(=O)[O-])=C3C.[Na+].[Na+] (centres undefined)	Dose-dependent effect	86.4	61.7	65.4	43	Active	Non-Toxic	Non-Toxic	68.5	Active	Tde	Not Active	Not Active	Not Active	Active	Active	inactive	12	>80	3.72	Activity [21]: 3.82%; Activity [22]: Active; Activity [23]: inactive; Activity [24]: Non-Toxic; Activity [25]: Non-Toxic; Activity [26]: Non-Toxic; Activity [27]: Non-Toxic; Activity [28]: Non-Toxic; Activity [29]: Non-Toxic; Activity [30]: Non-Toxic; Activity [31]: Non-Toxic; Activity [32]: Non-Toxic
C=CC1=C(C)c2cc3[nH]c(cc4nc(cc5[nH]c(cc1n2)c(C)c5CCC(=O)[O-])C(CCC(=O)[O-])=C4C)c(C)c3C(C)OCCCCCC.[Na+].[Na+] (centres undefined)	Dose-dependent effect	98	76.1	45.4	28	Active	Non-Toxic	Non-Toxic	21.7	Active	Tde	Not Active	Not Active	Not Active	Active	Active	inactive	12	>80	4.02	Activity [21]: 7.17%; Activity [22]: Active; Activity [23]: inactive; Activity [24]: Non-Toxic; Activity [25]: Non-Toxic; Activity [26]: Non-Toxic; Activity [27]: Non-Toxic; Activity [28]: Non-Toxic; Activity [29]: Non-Toxic; Activity [30]: Non-Toxic; Activity [31]: Non-Toxic; Activity [32]: Non-Toxic
